Measured values as given in patent US10413535B2, “Pharmaceutical compositions comprising an integrin ALPHA4 antagonist for use in treating ocular inflammatory conditions” (AXEROVISION, INC., priority 2015, dated 2019).

What was measured:
[1] = test system: cells of draining cervical lymph nodes; assay: Flow cytometry of draining cervical lymph nodes, desiccating stress 1 day; type: in vivo, mouse; details: 1 day DS
Protocol: (§1) Female C57BL/6 mice, aged 6 to 8 weeks, were subjected to DS for 5 days (DS5) as described previously (de Paiva et al., 2006b; Niederkorn et al., 2006). Topical bilateral treatment with 1 eye drop per eye (2 μL volume) or subcutaneous injection (4 μL volume), 2 times per day, was initiated on day 1 concurrently with DS and continued through day 4. Treatment with the compound of formula I or dexamethasone phosphate 0.1% was compared to correspondingly treated vehicle controls. Mice were randomized to receive one of the test articles. Control mice were kept in a non-stressed (NS) environment maintained at 50-75% relative humidity without exposure to airflow or scopolamine and were not treated with test or control article. Treatment effects were assessed on corneal staining with Oregon Green Dextran (OGD); expression of inflammatory markers in ocular surface tissues by real time PCR; cell population analysis in draining cervical lymph nodes by FACS analysis; conjunctival T cell infiltration by immunohistochemistry.
Cervical draining lymph nodes (CLN) were surgically excised, placed in a round culture plate with ˜8 mL of complete RPMI media and smashed between two frosted slides.
Single-cell suspensions of CLN from C57BL/6 mice, treated under DS conditions for 1 day, were prepared, centrifuged and sequentially filtered, as previously described (de Paiva et al., 2009a). Subsequently 1.0 mL of ACT solution was added for 30 seconds followed by 2.0 mL of complete RPMI. The cells were once again centrifuged and the supernatant aspirated. Cells were then re-suspended in 2.0 mL of complete RPMI and prepared for counting. Ten μL of Trypan Blue were used for counting and the cells were divided in tubes at 1×10^6 cells/mL. Subsequently, the cells were incubated on ice in 20 μL unconjugated anti-mouse CD16/CD32 (BD Pharmingen, San Diego, Calif.) followed by 80 μL of directly conjugated primary antibody or isotype. Finally the samples were washed with 1 mL PBS/1% FBS, centrifuged and re-suspend in 0.3 mL PBS/1% FBS containing 1:1000 of PI. The samples were stored at 4° C. until the analysis was performed with an A BD LSRII Benchtop cytometer. The data was analysed using BD Diva Software (BD Pharmingen) and FlowJo (TreeStar Inc).
Due to skewed distribution of OGD data, the analysis was done on the log 10 scale to make the data more normally distributed. Log 10 OGD data was averaged across two observers and the left and right eyes. The mixed effects ANOVA model included treatment group as a fixed effect and week as a random effect. 95% and 99% confidence intervals were constructed for the disease (5 day DS vs untreated group kept in separate vivarium) and compound treatment effects (treatment vs vehicle). As these comparisons were all pre-planned (comparing each treatment to its vehicle group), no adjustment was made for multiplicity. Log 10 scale treatment effect estimates and confidence limits were converted back to the original OGD scale, thus representing the estimate for the ratio of group geometric means and their confidence limits. For gene expression analysis, an unpaired T test was performed to compare drug and vehicle treatment. For flow cytometry analysis, a 2-way ANOVA with fixed treatment and random experiment effects was employed to test the treatment differences. The analysis was followed by Dunnett's multiple comparison procedure to compare each of the treatment groups with the vehicle group. T cell density was calculated for each section and averaged across sections for each animal. As the distribution of average cell density data was non-normal, it was analyzed by using non-parametric methods (Kruskal-Wallis procedure, followed by Dunn's multiple comparisons technique).
The draining CLN are an integral part of the immune cycle in DED (Pflugfelder et al., 2008; Schaumburg et al., 2011). […]

[2] = test system: C57BL/6 mice subjected to desiccating stress; assay: Corneal OGD staining in murine desiccating stress model; type: in vivo, mouse; details: topical bilateral 2 times per day, 5 days DS, vs vehicle (GW559090 1-30 mg/mL; Dex 0.1%)
Protocol: as §1
On the morning of the 5th day, mice received one s.c. dose of scopolamine. Two hours later corneal staining was assessed using Oregon Green Dextran (OGD-488), which is a conjugated fluorescent dye of a 70 kDa molecular size (Invitrogen-Molecular Probes) as previously described (de Paiva et al., 2006b). The procedure consisted of instillation of 0.5 μL of OGD on the cornea using a glass capillary pipette, 1 minute before euthanasia. Mice were euthanized by inhalation of isoflurane gas followed by cervical dislocation. Eyes were then rinsed with 2 mL of BSS. Excess liquid was carefully blotted from the ocular surface with filter papers without touching the cornea. Digital pictures of both eyes were taken under 470 nm excitation and 488 nm emission wave lengths using a Nikon SMZ-1500 stereo microscope, with an exposure time of 2 seconds. Both eyes from each animal were evaluated; the right eye always first followed by the left eye. The mean intensity in the central cornea was evaluated from digital images using NIS Elements (version 3.0) by placing a fixed region of interest (a 2-mm diameter circle) on the central cornea. The mean intensity of the fluorescence was read by the software and stored in a database (Excel, Microsoft). This fluorescence measurement in the central ring was done independently by 2 masked observers, for each mouse eye. By the conclusion of the experiment, results were averaged from both observers using all data collected during all study weeks (Excel, Microsoft). Results are presented as geometric mean±95% confidence interval of gray levels.
Due to skewed distribution of OGD data, the analysis was done on the log 10 scale to make the data more normally distributed. Log 10 OGD data was averaged across two observers and the left and right eyes. The mixed effects ANOVA model included treatment group as a fixed effect and week as a random effect. 95% and 99% confidence intervals were constructed for the disease (5 day DS vs untreated group kept in separate vivarium) and compound treatment effects (treatment vs vehicle). As these comparisons were all pre-planned (comparing each treatment to its vehicle group), no adjustment was made for multiplicity. […] T cell density was calculated for each section and averaged across sections for each animal. […]

[3] = test system: dry eye patients; details: delivered topically; cited from earlier work
[4] = test system: multiple sclerosis and Crohn's disease; details: in vivo; cited from earlier work
[5] = topical treatment, vs vehicle (GW559090 30 mg/mL, 60 μg per eye; Dex 0.1%), listed as dexamethasone

Compound: C[C@@H]1C[C@H]2[C@@H]3CCC4=CC(=O)C=C[C@]4(C)[C@@]3(F)[C@@H](O)C[C@]2(C)[C@@]1(O)C(=O)COP(=O)(O)O [Dex, Dexamethasone phosphate, reference compound]
- CD4+ and CD8+ T cells in draining lymph nodes [1]: nor did treatment with the compound of formula I or dexamethasone decrease the number of T cells
- CD11c+ dendritic cells in draining cervical lymph nodes [1, 5]: no significant effect
- CD11c+/MHC II+ dendritic cells in draining cervical lymph nodes [1, 5]: no significant effect
- CD11c+ dendritic cells in draining cervical lymph nodes ([1]; topical treatment, vs vehicle (GW559090 30 mg/mL, 60 μg per eye; Dex 0.1%), listed as dexamethasone phosphate): Neither systemic treatment with the compound of formula I nor topical treatment with dexamethasone phosphate produced the same effect
- OGD intensity score (corneal staining / corneal barrier disruption) [2]: significantly improved
- OGD intensity score (corneal staining / corneal barrier disruption) ([2]; listed as dexamethasone): decreased

Compound: CS(=O)(=O)c1cccc(C[C@H](NC(=O)c2c(Cl)cc3c(c2Cl)CCN(C(=O)c2ccc4ccoc4c2)C3)C(=O)O)c1 [Lifitegrast, (2S)-2-[[2-(1-benzofuran-6-carbonyl)-5,7-dichloro-3,4-dihydro-1H-isoquinoline-6-carbonyl]amino]-3-(3-methylsulfonylphenyl)propanoic acid]
- Corneal staining [3]: reduce
- Symptoms [3]: improve

Compound: Natalizumab: an antibody directed against the integrin α4 subunit
- Inflammation and clinical outcomes [4]: profoundly inhibit inflammation and improve clinical outcomes
